Numbers after ± are expanded uncertainties.
Key:
[1] = 101.33 kPa, Liquid; for speed of sound: Sing-around technique in a fixed-path interferometer; for mass density: Vibrating tube method
[2] = molar heat capacity at constant pressure; conditions: 101.33 kPa, Liquid, DSC

CCCCn1cc[n+](CCC(C)C)c1.O=S(=O)([N-]S(=O)(=O)C(F)(F)F)C(F)(F)F
Conditions	mass density, [1] [kg/m3]	molar heat capacity at constant pressure, [2] [J/K/mol]	speed of sound, [1] [m/s]
287.15 K	1328.1 ± 9.6	–	1243.8 ± 5
289.15 K	1326.3 ± 9.6	–	1238.9 ± 5
291.15 K	1324.4 ± 9.6	–	1234.1 ± 5
293.15 K	1322.6 ± 9.5	681.82 ± 26	1229.3 ± 5
294.15 K	–	682.92 ± 26	–
295.15 K	1320.8 ± 9.5	683.63 ± 26	1224.5 ± 5
296.15 K	–	684.34 ± 26	–
297.15 K	1319.1 ± 9.5	685.11 ± 27	1219.8 ± 5
298.15 K	–	685.77 ± 27	–
299.15 K	1317.3 ± 9.5	686.48 ± 27	1215.1 ± 5
300.15 K	–	687.15 ± 27	–
301.15 K	1315.5 ± 9.4	687.82 ± 27	1210.4 ± 5
302.15 K	–	688.48 ± 27	–
303.15 K	1313.7 ± 9.4	689.15 ± 27	1205.8 ± 5
304.15 K	–	689.91 ± 27	–
305.15 K	1311.9 ± 9.4	690.67 ± 27	1201.2 ± 5
306.15 K	–	691.33 ± 27	–
307.15 K	1310.2 ± 9.4	692.19 ± 27	1196.6 ± 5
308.15 K	–	692.95 ± 27	–
309.15 K	1308.4 ± 9.3	693.62 ± 27	1192 ± 5
310.15 K	–	694.42 ± 27	–
311.15 K	1306.6 ± 9.3	695.14 ± 27	1187.5 ± 5
312.15 K	–	695.9 ± 27	–
313.15 K	1304.9 ± 9.3	696.66 ± 27	1183 ± 5
314.15 K	–	697.47 ± 27	–
315.15 K	1303.1 ± 9.3	698.23 ± 27	1178.4 ± 5
316.15 K	–	698.94 ± 27	–
317.15 K	1301.3 ± 9.2	699.65 ± 27	1173.9 ± 5
318.15 K	–	700.56 ± 27	–
319.15 K	1299.6 ± 9.2	701.27 ± 27	1169.5 ± 5
320.15 K	–	702.08 ± 27	–
321.15 K	1297.8 ± 9.2	702.84 ± 27	1165 ± 5
322.15 K	–	703.7 ± 27	–
323.15 K	1296.1 ± 9.2	704.55 ± 27	1160.6 ± 5
324.15 K	–	705.36 ± 27	–
325.15 K	1294.3 ± 9.1	706.26 ± 27	1156.2 ± 5
326.15 K	–	707.07 ± 27	–
327.15 K	1292.6 ± 9.1	707.93 ± 27	1151.8 ± 5
328.15 K	–	708.78 ± 27	–
329.15 K	1290.8 ± 9.1	709.59 ± 27	1147.4 ± 5
330.15 K	–	710.4 ± 28	–
331.15 K	1289.1 ± 9.1	711.16 ± 28	1143 ± 5
332.15 K	–	711.97 ± 28	–
333.15 K	1287.4 ± 9	712.68 ± 28	1138.7 ± 5
334.15 K	–	713.49 ± 28	–
335.15 K	1285.6 ± 9	714.25 ± 28	1134.3 ± 5
336.15 K	–	714.92 ± 28	–
337.15 K	1283.9 ± 9	715.82 ± 28	1130 ± 5
338.15 K	–	716.58 ± 28	–
339.15 K	1282.2 ± 9	717.34 ± 28	1125.7 ± 5
340.15 K	–	718.15 ± 28	–
341.15 K	1280.4 ± 8.9	718.86 ± 28	1121.5 ± 5
342.15 K	–	719.53 ± 28	–
343.15 K	1278.7 ± 8.9	720.2 ± 28	1117.3 ± 5
344.15 K	–	720.81 ± 28	–
345.15 K	–	721.43 ± 28	–
346.15 K	–	722.24 ± 28	–
347.15 K	–	723.05 ± 28	–
348.15 K	–	724.28 ± 28	–

CCCCC[n+]1ccn(CCCC)c1.O=S(=O)([N-]S(=O)(=O)C(F)(F)F)C(F)(F)F
Conditions	mass density, [1] [kg/m3]	molar heat capacity at constant pressure, [2] [J/K/mol]	speed of sound, [1] [m/s]
287.15 K	1327.3 ± 9.6	–	1239.6 ± 5
289.15 K	1325.5 ± 9.6	–	1234.8 ± 5
291.15 K	1323.7 ± 9.6	–	1230 ± 5
293.15 K	1321.9 ± 9.5	683.58 ± 26	1225.3 ± 5
294.15 K	–	684.63 ± 27	–
295.15 K	1320.1 ± 9.5	685.3 ± 27	1220.6 ± 5
296.15 K	–	685.96 ± 27	–
297.15 K	1318.3 ± 9.5	686.63 ± 27	1216 ± 5
298.15 K	–	687.34 ± 27	–
299.15 K	1316.5 ± 9.5	687.96 ± 27	1211.3 ± 5
300.15 K	–	688.62 ± 27	–
301.15 K	1314.7 ± 9.4	689.29 ± 27	1206.7 ± 5
302.15 K	–	690 ± 27	–
303.15 K	1312.9 ± 9.4	690.67 ± 27	1202.1 ± 5
304.15 K	–	691.38 ± 27	–
305.15 K	1311.1 ± 9.4	692.05 ± 27	1197.6 ± 5
306.15 K	–	692.76 ± 27	–
307.15 K	1309.4 ± 9.4	693.52 ± 27	1193 ± 5
308.15 K	–	694.28 ± 27	–
309.15 K	1307.6 ± 9.3	694.95 ± 27	1188.5 ± 5
310.15 K	–	695.57 ± 27	–
311.15 K	1305.8 ± 9.3	696.23 ± 27	1184 ± 5
312.15 K	–	697.09 ± 27	–
313.15 K	1304 ± 9.3	697.9 ± 27	1179.6 ± 5
314.15 K	–	698.7 ± 27	–
315.15 K	1302.3 ± 9.2	699.42 ± 27	1175.1 ± 5
316.15 K	–	700.08 ± 27	–
317.15 K	1300.5 ± 9.2	700.84 ± 27	1170.7 ± 5
318.15 K	–	701.65 ± 27	–
319.15 K	1298.8 ± 9.2	702.37 ± 27	1166.3 ± 5
320.15 K	–	703.22 ± 27	–
321.15 K	1297 ± 9.2	703.98 ± 27	1161.8 ± 5
322.15 K	–	704.74 ± 27	–
323.15 K	1295.2 ± 9.1	705.5 ± 27	1157.5 ± 5
324.15 K	–	706.26 ± 27	–
325.15 K	1293.5 ± 9.1	707.07 ± 27	1153.1 ± 5
326.15 K	–	707.83 ± 27	–
327.15 K	1291.7 ± 9.1	708.69 ± 27	1148.7 ± 5
328.15 K	–	709.54 ± 27	–
329.15 K	1290 ± 9.1	710.35 ± 28	1144.4 ± 5
330.15 K	–	711.07 ± 28	–
331.15 K	1288.3 ± 9	711.87 ± 28	1140.1 ± 5
332.15 K	–	712.64 ± 28	–
333.15 K	1286.5 ± 9	713.4 ± 28	1135.8 ± 5
334.15 K	–	714.16 ± 28	–
335.15 K	1284.8 ± 9	714.87 ± 28	1131.5 ± 5
336.15 K	–	715.68 ± 28	–
337.15 K	1283 ± 9	716.44 ± 28	1127.3 ± 5
338.15 K	–	717.2 ± 28	–
339.15 K	1281.3 ± 9	718.01 ± 28	1123 ± 5
340.15 K	–	718.67 ± 28	–
341.15 K	1279.6 ± 8.9	719.43 ± 28	1118.8 ± 5
342.15 K	–	719.96 ± 28	–
343.15 K	1277.8 ± 8.9	720.62 ± 28	1114.7 ± 5
344.15 K	–	721.24 ± 28	–
345.15 K	–	721.86 ± 28	–
346.15 K	–	722.48 ± 28	–
347.15 K	–	723.29 ± 28	–
348.15 K	–	724.47 ± 28	–
